What was measured:
[1] = Evaluation of phase transition temperature by polarizing microscope; assay type: physicochemical; details: for Phase Transition Temperature Evaluation of Decrease: versus comparative compound with the same Ar and side chain portion of Formula (Ia)
Source text: Here, the temperature at which the compound transitions from the smectic phase to the nematic phase may be easily measured by observation of the composition employing polarized light microscopy. For example, in the nematic phase, a schlieren texture specific to the nematic phase is observed, while the texture transitions to a focal conic fan texture in a smectic A phase. Therefore, the phase transition temperature can be measured by observing the textures with a polarizing microscope while increasing or decreasing the temperature.
The phase transition temperatures of the synthesized liquid crystal compounds of the Examples and Comparative Examples were observed using a polarizing microscope to evaluate the degrees of temperature decrease. Specifically, the compounds of the Examples were compared to the compounds of the Comparative Examples, which have different structures for the side chain portions thereof. That is, the phase transition temperature of a compound of a Comparative Example having Ar (the aromatic ring at the center of General Formula 1) in common with the Examples and a side chain portion represented by Formula (Ia) below was used as a reference. Evaluations of A through C were assigned according to the degree of temperature decrease from the reference phase transition temperature.
(§1) For example, compound (I-1) and (I-2) were compared to Comparative Compound (Ia-1), and Compound (III-3) was compared to Comparative Compound (IIIa-3). The evaluation was carried out based on the following criteria.
A: decrease in melting point or Sm-N (smectic-nematic) transition temperature is 20° C. or greater
B: decrease in melting point or Sm-N (smectic-nematic) transition temperature is 5° C. or greater and less than 20° C.
C: decrease in melting point or Sm-N (smectic-nematic) transition temperature is less than 5° C.
With respect to the phase transition temperature, the numerical value in parentheses represents the numerical value during temperature decrease, and other numerical values represent a numerical value during temperature increase.

[2] = Measurement and evaluation of solubility in MEK and CPN; assay type: physicochemical; details: for Solubility CPN wt %: cyclopentanone; for Solubility CPN wt % / Solubility MEK wt %: room temperature, visual observation, 5 wt % increments; for Solubility MEK wt %: methyl ethyl ketone; for Solubility Evaluation: versus comparative compound with the same Ar and side chain portion of Formula (Ia)
Procedure: Solubility measurements of the synthesized liquid crystal compounds were conducted by the following method. 50 mg of each compound was weighted into a 1.5 mL sample bottle, and solvent was added until the solid component became 40 wt % (75 mg). The solubility was determined to be 40 wt % if clear under visual observation after shaking well manually at room temperature. If undissolved residue was present, solvent was added such that the solid component became 35 wt % (+18 mg). The solubility was determined to be 35 wt % if clear under visual observation after shaking well manually at room temperature. If undissolved residue was present, solvent was added such that the solid component became 30 wt %. Similar operations were performed in increments of 5 wt %, and repeated until the solid component became 5 wt %. If undissolved residue was present, the solubility was determined to be less than 5 wt % (<5 wt %), and measurements were completed. MEK (methyl ethyl ketone) and CPN (cyclopentanone) were utilized as solvents for measuring solubility.
The measured values of solubility were evaluated. The evaluations were conducted by using solubility of a compound of a Comparative Example having Ar (the aromatic ring at the center of General Formula 1) in common with the Examples and a side chain portion represented by Formula (Ia) as a reference, in a manner similar to that in the evaluation of the phase transition temperature. Evaluations of A through C were assigned according to the degree of improvement in solubility from the reference solubility.
as §1
A: solubility improved twofold or greater in plural solvents or a single solvent
B: solubility was the same or improved up to twofold in plural solvents or a single solvent
C: no improvement in solubility in plural solvents or a single solvent

[3] = value in parentheses: during temperature decrease

| Structure (SMILES) | TNi(° C.) Isotropic Phase Transition Point ([1]; during temperature increase) | Tsm—N(° C.) Sm—N Transition Point ([1]; during temperature increase) | Phase Transition Temperature Evaluation of Decrease [1] | Solubility CPN wt % [2] | Solubility MEK wt % [2] | Solubility Evaluation [2] | melting point | TNi(° C.) Isotropic Phase Transition Point [1, 3] | Tsm—N(° C.) Sm—N Transition Point [1, 3] |
| --- | --- | --- | --- | --- | --- | --- | --- | --- | --- |
| C=CC(=O)OCCOC(=O)CCC(=O)OCCc1ccc(OC(=O)[C@H]2CC[C@H](C(=O)Oc3ccc(OC(=O)[C@H]4CC[C@H](C(=O)Oc5ccc(CCOC(=O)CCC(=O)OCCOC(=O)C=C)cc5)CC4)c4c3SC(=C(C#N)C#N)S4)CC2)cc1 [Compound I-1] | 172 °C | 140 °C | A (decrease in melting point or Sm-N (smectic-nematic) transition temperature is 20 °C or greater) | 40 wt % | 20 wt % | A (solubility improved twofold or greater in plural solvents or a single solvent) | 108 °C | – | – |
| C=C(C)C(=O)OCCOC(=O)CCC(=O)OCCc1ccc(OC(=O)[C@H]2CC[C@H](C(=O)Oc3ccc(OC(=O)[C@H]4CC[C@H](C(=O)Oc5ccc(CCOC(=O)CCC(=O)OCCOC(=O)C(=C)C)cc5)CC4)c4c3SC(=C(C#N)C#N)S4)CC2)cc1 [Compound I-2] | 168 °C | 130 °C | A (decrease in melting point or Sm-N (smectic-nematic) transition temperature is 20 °C or greater) | 20 wt % | 10 wt % | A (solubility improved twofold or greater in plural solvents or a single solvent) | 105 °C | – | – |
| C=CC(=O)OCCCCOC(=O)CCC(=O)OCCc1ccc(OC(=O)[C@H]2CC[C@H](C(=O)Oc3ccc(OC(=O)[C@H]4CC[C@H](C(=O)Oc5ccc(CCOC(=O)CCC(=O)OCCCCOC(=O)C=C)cc5)CC4)c4c3SC(=C(C#N)C#N)S4)CC2)cc1 [Compound I-3] | 156 °C | 126 °C | A (decrease in melting point or Sm-N (smectic-nematic) transition temperature is 20 °C or greater) | 25 wt % | 15 wt % | A (solubility improved twofold or greater in plural solvents or a single solvent) | 107 °C | – | – |
| C=CC(=O)OCCOCCOC(=O)CCC(=O)OCCc1ccc(OC(=O)[C@H]2CC[C@H](C(=O)Oc3ccc(OC(=O)[C@H]4CC[C@H](C(=O)Oc5ccc(CCOC(=O)CCC(=O)OCCOCCOC(=O)C=C)cc5)CC4)c4c3SC(=C(C#N)C#N)S4)CC2)cc1 [Compound I-5] | 172 °C | 146 °C | A (decrease in melting point or Sm-N (smectic-nematic) transition temperature is 20 °C or greater) | 40 wt % | 15 wt % | A (solubility improved twofold or greater in plural solvents or a single solvent) | 110 °C | – | – |
| C=CC(=O)OCCOC(=O)COCC(=O)OCCc1ccc(OC(=O)[C@H]2CC[C@H](C(=O)Oc3ccc(OC(=O)[C@H]4CC[C@H](C(=O)Oc5ccc(CCOC(=O)COCC(=O)OCCOC(=O)C=C)cc5)CC4)c4c3SC(=C(C#N)C#N)S4)CC2)cc1 [Compound I-6] | 172 °C | 146 °C | A (decrease in melting point or Sm-N (smectic-nematic) transition temperature is 20 °C or greater) | 20 wt % | 10 wt % | A (solubility improved twofold or greater in plural solvents or a single solvent) | 110 °C | – | – |
| C=C(C)C(=O)OCCOCCNC(=O)OCCc1ccc(OC(=O)[C@H]2CC[C@H](C(=O)Oc3ccc(OC(=O)[C@H]4CC[C@H](C(=O)Oc5ccc(CCOC(=O)NCCOCCOC(=O)C(=C)C)cc5)CC4)c4c3SC(=C(C#N)C#N)S4)CC2)cc1 [Compound I-7] | 195 °C | 145 °C | B (decrease in melting point or Sm-N (smectic-nematic) transition temperature is 5 °C or greater and less than 20° C.) | 25 wt % | 10 wt % | A (solubility improved twofold or greater in plural solvents or a single solvent) | 130 °C | – | – |
| C=C(C)C(=O)OCCNC(=O)OCCc1ccc(OC(=O)[C@H]2CC[C@H](C(=O)Oc3ccc(OC(=O)[C@H]4CC[C@H](C(=O)Oc5ccc(CCOC(=O)NCCOC(=O)C(=C)C)cc5)CC4)c4c3SC(=C(C#N)C#N)S4)CC2)cc1 [Compound I-9] | 220 °C | 158 °C | B (decrease in melting point or Sm-N (smectic-nematic) transition temperature is 5 °C or greater and less than 20° C.) | 20 wt % | 5 wt % | B (solubility was the same or improved up to twofold in plural solvents or a single solvent) | 130 °C | – | – |
| C=CCCCCCCCCC(=O)OCCc1ccc(OC(=O)[C@H]2CC[C@H](C(=O)Oc3ccc(OC(=O)[C@H]4CC[C@H](C(=O)Oc5ccc(CCOC(=O)CCCCCCCCC=C)cc5)CC4)c4c3SC(=C(C#N)C#N)S4)CC2)cc1 [Compound I-14] | 185 °C | 179 °C | B (decrease in melting point or Sm-N (smectic-nematic) transition temperature is 5 °C or greater and less than 20° C.) | 25 wt % | 10 wt % | A (solubility improved twofold or greater in plural solvents or a single solvent) | 126 °C | – | – |
| C=CC(=O)OCCOC(=O)CCC(=O)OCCc1ccc(OC(=O)[C@H]2CC[C@H](C(=O)Oc3ccc(OC(=O)[C@H]4CC[C@H](C(=O)Oc5ccc(CCOC(=O)CCC(=O)OCCOC(=O)C=C)cc5)CC4)c4c3SC(=C(C#N)C(=O)OCCC(C)(C)O)S4)CC2)cc1 [III-7] | – | – | A (decrease in melting point or Sm-N (smectic-nematic) transition temperature is 20 °C or greater) | 40 wt % | 40 wt % | A (solubility improved twofold or greater in plural solvents or a single solvent) | – | (50) ° C. | – |
| C=CC(=O)OCCOC(=O)CCC(=O)OCCc1ccc(OC(=O)[C@H]2CC[C@H](C(=O)Oc3cc(CC)c(OC(=O)[C@H]4CC[C@H](C(=O)Oc5ccc(CCOC(=O)CCC(=O)OCCOC(=O)C=C)cc5)CC4)c4c3SC(=C(C#N)C#N)S4)CC2)cc1 [IV-2] | – | – | – | 40 wt % | 40 wt % | – | – | (113) ° C. | (61) ° C. |
| C=CC(=O)OCCOC(=O)CCC(=O)OCCc1ccc(OC(=O)[C@H]2CC[C@H](C(=O)Oc3cc(C(C)(C)C)c(OC(=O)[C@H]4CC[C@H](C(=O)Oc5ccc(CCOC(=O)CCC(=O)OCCOC(=O)C=C)cc5)CC4)c4c3SC(=C(C#N)C#N)S4)CC2)cc1 [IV-6] | – | – | A (decrease in melting point or Sm-N (smectic-nematic) transition temperature is 20 °C or greater) | 40 wt % | 40 wt % | A (solubility improved twofold or greater in plural solvents or a single solvent) | – | (58) ° C. | – |
| C=CC(=O)OCCCCCCOc1ccc(OC(=O)[C@H]2CC[C@H](C(=O)Oc3cc(C(C)(C)C)c(OC(=O)[C@H]4CC[C@H](C(=O)Oc5ccc(OCCCCCCOC(=O)C=C)cc5)CC4)c4c3SC(=C(C#N)C#N)S4)CC2)cc1 [IVa-6, reference compound] | – | – | – | 10 wt % | <5 wt % | – | – | (167) ° C. | – |

— US11072741B2, “Optically anisotropic layer, method for producing the optically anisotropic layer, a laminate, polarizing plate, display device, liquid crystal compound, method for producing the liquid crystal compound, and carboxylic acid compound” (FUJIFILM Corporation, priority 2014, dated 2021)
